Laboratory results reported in US4731451A, “N-((2-oxo-3(2H)benzothiazolyl)methyl)-2-chloroacetanilides” (Monsanto Company, priority 1980, dated 1988).

Columns and labels:
Type in all cases: in vivo
Barnyardgrass = experiment: Pre-emergent herbicidal activity (Table III); also: ranges in brackets are in %
Method in brief: (§1)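 Pre-emergence, soil-incorporated cover layer: known amount of test compound (solvent or wettable powder) mixed into fill soil over seeded pans; greenhouse, bottom-watered; fixed-scale percent-injury rating at ~2-3 wk.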

Cocklebur = experiment: Pre-emergent herbicidal activity (Table III); also: ranges in brackets are in %
Method in brief: as §1

Crabgrass = experiment: Pre-emergent herbicidal activity (Table III); also: ranges in brackets are in %
Method in brief: as §1

Downy Brome = experiment: Pre-emergent herbicidal activity (Table III); also: ranges in brackets are in %
Method in brief: as §1

Hemp Sesbania = experiment: Pre-emergent herbicidal activity (Table III); also: ranges in brackets are in %
Method in brief: as §1

Lambsquarters = experiment: Pre-emergent herbicidal activity (Table III); also: ranges in brackets are in %
Method in brief: as §1

Morningglory = experiment: Pre-emergent herbicidal activity (Table III); also: ranges in brackets are in %
Method in brief: as §1

Panicum = experiment: Pre-emergent herbicidal activity (Table III); also: ranges in brackets are in %
Method in brief: as §1

Rice [1] = experiment: Pre-emergent herbicidal activity (Table III); also: ranges in brackets are in %
Method in brief: as §1

Smartweed = experiment: Pre-emergent herbicidal activity (Table III); also: ranges in brackets are in %
Method in brief: as §1

Sorghum = experiment: Pre-emergent herbicidal activity (Table III); also: ranges in brackets are in %
Method in brief: as §1

Soybean = experiment: Pre-emergent herbicidal activity (Table III); also: ranges in brackets are in %
Method in brief: as §1

Sugarbeet = experiment: Pre-emergent herbicidal activity (Table III); also: ranges in brackets are in %
Method in brief: as §1

Velvetleaf = experiment: Pre-emergent herbicidal activity (Table III); also: ranges in brackets are in %
Method in brief: as §1

Wheat = experiment: Pre-emergent herbicidal activity (Table III); also: ranges in brackets are in %
Method in brief: as §1

Wild Buckwheat = experiment: Pre-emergent herbicidal activity (Table III); also: ranges in brackets are in %
Method in brief: as §1

Rice [2] = experiment: Percent inhibition in transplanted rice (Table VI)
Excerpt: (§2) In Table VI, data is presented showing the effect of said compound on the major Asian rice weeds Echinochloa crusgalli (EC), Monochoria vaginalis (MV), Cyperus serotinus (CS), Eleocharis kuroguwai (EK) and Sagittaria trifolia (ST) in transplanted rice at rates within the range of 0.25-2.0 lb/A (0.28-2.24 kg/ha); observations were made 18 days after treatment.

Echinochloa crusgalli = experiment: Percent inhibition of rice weeds in transplanted rice (Table VI); details: Echinochloa crus-galli, 432 h, 18 days after treatment
Excerpt: as §2

Monochoria vaginalis = experiment: as above; details: Pontederia vaginalis, 432 h, 18 days after treatment
Excerpt: as §2

Sagittaria trifolia = experiment: as above; details: 432 h, 18 days after treatment
Excerpt: as §2

CC1=C(N(Cn2c(=O)sc3ccccc32)C(=O)CCl)C(C)CCC1 (stereo not drawn) [Example 1, N-(2,6-dimethyl-1-cyclohexen-1-yl)-N-[(2-oxo-3(2H)-benzothiazolyl)methyl]-2-chloroacetamide]
Herbicidal rating (Barnyardgrass; 0.0056 kg/ha): 3 (75-100) | Herbicidal rating (Barnyardgrass; 0.0112 kg/ha): 3 (75-100) | Herbicidal rating (Barnyardgrass; 0.056 kg/ha): 3 (75-100) | Herbicidal rating (Barnyardgrass; 0.28 kg/ha): 3 (75-100) | Herbicidal rating (Barnyardgrass; 1.12 kg/ha): 3 (75-100) | Herbicidal rating (Barnyardgrass; 5.6 kg/ha): 3 (75-100) | Herbicidal rating (Cocklebur; 0.0112 kg/ha): 0 (0-24) | Herbicidal rating (Cocklebur; 0.056 kg/ha): 0 (0-24) | Herbicidal rating (Crabgrass; 0.0056 kg/ha): 3 (75-100) | Herbicidal rating (Crabgrass; 0.0112 kg/ha): 2 (50-74) | Herbicidal rating (Crabgrass; 0.056 kg/ha): 3 (75-100) | Herbicidal rating (Crabgrass; 0.28 kg/ha): 3 (75-100) | Herbicidal rating (Crabgrass; 1.12 kg/ha): 3 (75-100) | Herbicidal rating (Crabgrass; 5.6 kg/ha): 3 (75-100) | Herbicidal rating (Downy Brome; 0.0056 kg/ha): 0 (0-24) | Herbicidal rating (Downy Brome; 0.0112 kg/ha): 1 (25-49) | Herbicidal rating (Downy Brome; 0.056 kg/ha): 0 (0-24) | Herbicidal rating (Downy Brome; 0.28 kg/ha): 0 (0-24) | Herbicidal rating (Downy Brome; 1.12 kg/ha): 3 (75-100) | Herbicidal rating (Downy Brome; 5.6 kg/ha): 0 (0-24) | Herbicidal rating (Hemp Sesbania; 0.0112 kg/ha): 1 (25-49) | Herbicidal rating (Hemp Sesbania; 0.056 kg/ha): 0 (0-24) | Herbicidal rating (Lambsquarters; 0.0056 kg/ha): 1 (25-49) | Herbicidal rating (Lambsquarters; 0.0112 kg/ha): 1 (25-49) | Herbicidal rating (Lambsquarters; 0.056 kg/ha): 1 (25-49) | Herbicidal rating (Lambsquarters; 0.28 kg/ha): 2 (50-74) | Herbicidal rating (Lambsquarters; 1.12 kg/ha): 2 (50-74) | Herbicidal rating (Lambsquarters; 5.6 kg/ha): 1 (25-49) | Herbicidal rating (Morningglory; 0.0056 kg/ha): 3 (75-100) | Herbicidal rating (Morningglory; 0.0112 kg/ha): 3 (75-100) | Herbicidal rating (Morningglory; 0.056 kg/ha): 1 (25-49) | Herbicidal rating (Morningglory; 0.28 kg/ha): 0 (0-24) | Herbicidal rating (Morningglory; 1.12 kg/ha): 0 (0-24) | Herbicidal rating (Morningglory; 5.6 kg/ha): 0 (0-24) | Herbicidal rating (Panicum; 0.0056 kg/ha): 3 (75-100) | Herbicidal rating (Panicum; 0.0112 kg/ha): 3 (75-100) | Herbicidal rating (Panicum; 0.056 kg/ha): 3 (75-100) | Herbicidal rating (Panicum; 0.28 kg/ha): 3 (75-100) | Herbicidal rating (Panicum; 1.12 kg/ha): 3 (75-100) | Herbicidal rating (Panicum; 5.6 kg/ha): 2 (50-74) | Herbicidal rating (Rice [1]; 0.0056 kg/ha): 1 (25-49) | Herbicidal rating (Rice [1]; 0.0112 kg/ha): 1 (25-49) | Herbicidal rating (Rice [1]; 0.056 kg/ha): 0 (0-24) | Herbicidal rating (Rice [1]; 0.28 kg/ha): 2 (50-74) | Herbicidal rating (Rice [1]; 1.12 kg/ha): 2 (50-74) | Herbicidal rating (Rice [1]; 5.6 kg/ha): 2 (50-74) | Herbicidal rating (Smartweed; 0.0056 kg/ha): 1 (25-49) | Herbicidal rating (Smartweed; 0.0112 kg/ha): 1 (25-49) | Herbicidal rating (Smartweed; 0.056 kg/ha): 1 (25-49) | Herbicidal rating (Smartweed; 0.28 kg/ha): 1 (25-49) | Herbicidal rating (Smartweed; 1.12 kg/ha): 0 (0-24) | Herbicidal rating (Smartweed; 5.6 kg/ha): 0 (0-24) | Herbicidal rating (Sorghum; 0.0056 kg/ha): 0 (0-24) | Herbicidal rating (Sorghum; 0.0112 kg/ha): 1 (25-49) | Herbicidal rating (Sorghum; 0.056 kg/ha): 0 (0-24) | Herbicidal rating (Sorghum; 0.28 kg/ha): 0 (0-24) | Herbicidal rating (Sorghum; 1.12 kg/ha): 3 (75-100) | Herbicidal rating (Sorghum; 5.6 kg/ha): 1 (25-49) | Herbicidal rating (Soybean; 0.0056 kg/ha): 0 (0-24) | Herbicidal rating (Soybean; 0.0112 kg/ha): 0 (0-24) | Herbicidal rating (Soybean; 0.056 kg/ha): 1 (25-49) | Herbicidal rating (Soybean; 0.28 kg/ha): 0 (0-24) | Herbicidal rating (Soybean; 1.12 kg/ha): 0 (0-24) | Herbicidal rating (Soybean; 5.6 kg/ha): 1 (25-49) | Herbicidal rating (Sugarbeet; 0.0056 kg/ha): 0 (0-24) | Herbicidal rating (Sugarbeet; 0.0112 kg/ha): 0 (0-24) | Herbicidal rating (Sugarbeet; 0.056 kg/ha): 1 (25-49) | Herbicidal rating (Sugarbeet; 0.28 kg/ha): 1 (25-49) | Herbicidal rating (Sugarbeet; 1.12 kg/ha): 1 (25-49) | Herbicidal rating (Sugarbeet; 5.6 kg/ha): 1 (25-49) | Herbicidal rating (Velvetleaf; 0.0056 kg/ha): 0 (0-24) | Herbicidal rating (Velvetleaf; 0.0112 kg/ha): 0 (0-24) | Herbicidal rating (Velvetleaf; 0.056 kg/ha): 0 (0-24) | Herbicidal rating (Velvetleaf; 0.28 kg/ha): 0 (0-24) | Herbicidal rating (Velvetleaf; 1.12 kg/ha): 0 (0-24) | Herbicidal rating (Velvetleaf; 5.6 kg/ha): 0 (0-24) | Herbicidal rating (Wheat; 0.0056 kg/ha): 0 (0-24) | Herbicidal rating (Wheat; 0.0112 kg/ha): 0 (0-24) | Herbicidal rating (Wheat; 0.056 kg/ha): 0 (0-24) | Herbicidal rating (Wheat; 0.28 kg/ha): 0 (0-24) | Herbicidal rating (Wheat; 1.12 kg/ha): 1 (25-49) | Herbicidal rating (Wheat; 5.6 kg/ha): 0 (0-24) | Herbicidal rating (Wild Buckwheat; 0.0056 kg/ha): 0 (0-24) | Herbicidal rating (Wild Buckwheat; 0.0112 kg/ha): 0 (0-24) | Herbicidal rating (Wild Buckwheat; 0.056 kg/ha): 0 (0-24) | Herbicidal rating (Wild Buckwheat; 0.28 kg/ha): 0 (0-24) | Herbicidal rating (Wild Buckwheat; 1.12 kg/ha): 0 (0-24) | Herbicidal rating (Wild Buckwheat; 5.6 kg/ha): 0 (0-24) | inhibition at 280 g/ha (Rice [2]; Oryza sativa, 432 h, transplanted rice, 0.28 kg/ha, 18 days after treatment): 0% | inhibition at 560 g/ha (Rice [2]; Oryza sativa, 432 h, transplanted rice, 0.56 kg/ha, 18 days after treatment): 0% | inhibition at 1120 g/ha (Rice [2]; Oryza sativa, 432 h, transplanted rice, 1.12 kg/ha, 18 days after treatment): 0% | inhibition at 2240 g/ha (Rice [2]; Oryza sativa, 432 h, transplanted rice, 2.24 kg/ha, 18 days after treatment): 10% | rice injury (rice safety) (Rice [2]; at 2.24 kg/ha or more): ≤ 15% | inhibition at 280 g/ha (Echinochloa crusgalli; 0.28 kg/ha): 100% | inhibition at 560 g/ha (Echinochloa crusgalli; 0.56 kg/ha): 100% | inhibition at 1120 g/ha (Echinochloa crusgalli; 1.12 kg/ha): 100% | inhibition at 2240 g/ha (Echinochloa crusgalli; 2.24 kg/ha): 100% | inhibition at 280 g/ha (Monochoria vaginalis; 0.28 kg/ha): 100% | inhibition at 560 g/ha (Monochoria vaginalis; 0.56 kg/ha): 100% | inhibition at 1120 g/ha (Monochoria vaginalis; 1.12 kg/ha): 100% | inhibition at 2240 g/ha (Monochoria vaginalis; 2.24 kg/ha): 100% | inhibition at 280 g/ha (Sagittaria trifolia; 0.28 kg/ha): 0% | inhibition at 560 g/ha (Sagittaria trifolia; 0.56 kg/ha): 5% | inhibition at 1120 g/ha (Sagittaria trifolia; 1.12 kg/ha): 5% | inhibition at 2240 g/ha (Sagittaria trifolia; 2.24 kg/ha): 5%
